This is an account of results in patent US5182300A, “Furosemide salts” (Roussel Uclaf, priority 1989, dated 1993).

Structures can show the parent of a compound that is named as a salt.

Series [1] has as its system atopic asthmatic patients. The settings on record: aerosol; bronchospasms induced by physical exercises, ultrasonic fogs and immunological stimulations; 10 mg/ml sodium salt solution inhaled for 15 to 20 minutes; cited from earlier work.
Series [2] can be described thus: initial measurement of the pH of the solution. The format is physicochemical.

For the compound `NS(=O)(=O)c1cc(C(=O)O)c(NCc2ccco2)cc1Cl` [furosemide, 4-chloro-N-furyl-5-sulfamoyl-anthranylic acid], the prevention of bronchospasms entry in series [1] is given as “prevent bronchospasms”.

On to `NS(=O)(=O)c1cc(C(=O)O)c(NCc2ccco2)cc1Cl` [furosemide salt of L-lysine, L-lysine salt of furosemide], for which the “pH (initial measurement)” value in series [2] (Sol. 1, water, 97.2 mg/ml) stood at 7.00; in series [2] (Sol. 2, physiol. sol., 184.4 mg/ml), 7.09; in series [2] (Sol. 3, water, 275.3 mg/ml), 7.32; in series [2] (Sol. 4, water, 125.0 mg/ml, kept at 60° C.), 7.06; in series [2] (Sol. 5, water, 125.0 mg/ml, kept at 25° C. away from the light), 7.06; in series [2] (Sol. 6, water, 90.4 mg/ml), 6.95. The “pH (initial measurement)” value in series [2] (Sol. 7, water containing 4% by weight of mannitol, 72.1 mg/ml) is 7.06.
